For data set [1], the system named is osteoclast differentiation. Description: Inhibitory effects on osteoclast differentiation (bone marrow cell/osteoblast co-culture, TRAP staining). The class given is cell-based, mice. Particulars: for inhibition at 1 µM: Mus musculus, Osteoclast, 168 h, read-out: Inhibition of osteoclast differentiation (%). The method, then: The effect of the benzamidine derivative of the present invention on osteoclast formation and differentiation process was evaluated via co-culture with an osteoblast.
Tibia was aseptically ectomized from 6 to 8-week-old male ddY mice to harvest bone marrow cells by using a syringe (21G, Korea Green Cross). The bone marrow cells were suspended in 5 mL of an α-MEM medium (Gibco BRL Co., supplemented with sodium bicarbonate (2.0 g/L), streptomycin (100 mg/L) and penicillin ([…]), filtered and then sterilized). The harvested cells were centrifuged at 600×g for 5 minutes to collect the whole quantity. To remove the red blood cells in the bone marrow cells, 3 mL of Tris HCl (0.83% NH4Cl, pH 7.5) was added and well mixed. After centrifugation, the numbers of the eukaryotic cells in the harvested bone marrow cells were counted, and then immediately used for a co-culture system.
The progenitor bone and the parietal bone were aseptically ectomized from 1 to 2-day-old neonatal ICR mice, washed with a phosphate butter solution (PBS), and treated with a mixed enzyme solution (0.2% collagenase and 0.1% dispase) six to seven times (10, 10, 10, 20, 20 and 20 min), and then 3 to 6 groups of the cells, in which a large volume of cells having osteoblastic characteristics were contained, were intensively collected, and washed with medium (serum-free α-MEM). The washed cells were cultured in the α-MEM medium containing 10% FBS for 2 to 3 days. After sub-culturing, the collected cells were used for this experiment, and diluted to a concentration of 1×10^6 cells/mL for storage at −70° C.
The benzamidine derivative of the present invention was dissolved in a sterile distilled water or ethanol to be diluted to a desired concentration. The final volume of the sample added to the cell culture medium was set at a ratio of 1:1000.
The bone marrow cells prepared in the above 1-1 and the osteoblast were co-cultured. Both the bone marrow cells (25,000 cells/cm^2) and the osteoblast (10,000 cells/cm^2) were plated in a 96-well plate using α-MEM medium containing FBS, and then cultured with the samples to be tested for 7 days. Differentiation factors, such as dexamethasone (10^−7 M) and vitamin D (10^−8 M), were also co-added to the medium from the first day of cultivation. The medium was changed with a fresh media containing a mixture of the samples and the differentiation factors every 2 to 3 days.
TRAP was used as a marker to measure the matured osteoclast in consideration of its characteristics showing a positive reaction to a TRAP staining solution.
The TRAP staining solution was prepared in such the manner that 5 mg of naphthol AS-MS phosphate (sigma N-4875) as a substrate and 25 mg of a coloring agent (Fast Red Violet LB salt) were dissolved in N,N-dimethylformamide (about 0.5 mL). 50 ml of a 0.1 N […] buffer solution containing 50 mM tartaric acid (pH 5.0) was added thereto, and the mixture was stored in a refrigerator prior to use as a staining solution.
After culturing the cells for 7 days, the medium was removed from the wells, the cells were once washed with PBS, and then fixed with PBS containing 10% formalin for 2 to 5 min. The cells were fixed again in a mixed solution of ethanol and acetone (1/1) for about 1 min, and dried off. The cells were further treated by the TRAP staining solution for 15 minutes, and washed with water and dried off. The osteoclasts with 3 or more nuclei showing a TRAP-positive reaction were counted under a microscopic examination. Each of tests was confirmed at least three times. The inhibitory effect on osteoclast differentiation of each experimental group, relative to negative controls, was expressed as a percentage (%).

Data set [2] relates to MC3T3-E1. Description: Cytotoxicity test (MTT), MC3T3-E1. The class given is cell-based. To be noted: 10^−6 M, cultured for 72 hrs, in comparison with the control group. Here is the method: (§1) The cytotoxic effect of the benzamidine derivative of the present invention was evaluated by carrying out the experiment described below.
(§2) The test substance was diluted in an appropriate solvent at a concentration of 10^−2 M. This substance was diluted in an appropriate culture medium for the cells used in the cytotoxicity test to a concentration of 10^−6M, and loaded into a 96-well plate in 100 μl per well. The cell lines to be used in the cytotoxicity test were plated on a 96-well plate in a dose of 1.0×10^4 cell/100 μl per well, and cultured for 72 hrs. 25 μl of MTT[3-(4,5-dimethyl-2-thiazolyl)-2,5-diphenyl-2H-tetrazolium bromide] dissolved in PBS (2 mg/mL) were added before 4 hrs of the end of culture. After completion of the reaction, the plates were centrifuged, the medium was discarded and 100 μl of DMSO was added to dissolve formazan. Finally, the absorbance of the developed plates was measured at 540 nm. The survival rates of the cells were expressed as % concentration values in comparison with the control group.

Data set [3] deals with calvaria. Description: Cytotoxicity test (MTT), calvaria. The class given is cell-based. To be noted: 10^−6 M, cultured for 72 hrs, in comparison with the control group. Here is the method: as §1, §2
For data set [4], the system named is HOS. Description: Cytotoxicity test (MTT), HOS. Particulars: 10^−6 M, cultured for 72 hrs, in comparison with the control group. The class given is cell-based. The method, then: as §1, §2
The mark [5] stands for this setting: 1 μm, 7 days co-culture, TRAP-positive osteoclasts with 3 or more nuclei, relative to negative controls.

Here are results for 14 compounds from US20100249402A1, “NOVEL BENZAMIDINE DERIVATIVES, PROCESS FOR THE PREPARATION THEREOF AND PHARMACEUTICAL COMPOSITION FOR PREVENTING OR TREATING OSTEPOROSIS COMPRISING THE SAME” (DONG WHA PHARMACEUTICAL CO. LTD., priority 2007, published 2010).

For orientation: inhibition means the drop in the measured response relative to a control, in per cent.

Like-named read-outs stand apart in the source and are kept apart here.

In the case of `CCCNCc1sc(C)nc1-c1ccc(OCCCCCOc2ccc(C(=N)NO)cc2)cc1` [Example 16, N-hydroxy-4-{5-[4-(2-methyl-5-propylaminomethyl-thiazol-4-yl)-phenoxy]-pentyloxy}-benzamidine], in data set [1], the inhibition at 1 µM worked out at 100%. The Cell survival rate in data set [2] was found to be 92%; in data set [3], 95%; in data set [4], 100%.
As to `Cc1nc(-c2ccc(OCCCCCOc3ccc(C(=N)NO)cc3)cc2)c(CNCCN2CCOCC2)s1` [Example 17, N-hydroxy-4-[5-(4-{2-methyl-5-[(2-morpholin-4-yl-ethylamino)-methyl]-thiazol-4-yl}-phenoxy)-pentyloxy]-benzamidine], the inhibition at 1 µM in data set [1] turned out to be 100%. Also, the Cell survival rate came to 103% in data set [2], 93% in data set [3] and 99% in data set [4].
With `Cc1nc(-c2ccc(OCCCCCOc3ccc(C(=N)NO)cc3)cc2)c(CNCCCn2ccnc2)s1` [Example 18], the “Inhibition of osteoclast differentiation (%)” value in data set [1] (setting [5]) is recorded as 100%. Further, the Cell survival rate was 99% in data set [2], 94% in data set [3] and 106% in data set [4].
Regarding `Cc1nc(-c2ccc(OCCCCCOc3ccc(C(=N)NO)cc3)cc2)c(CN2CCCC2)s1` [Example 19, N-hydroxy-4-{5-[4-(2-methyl-5-pyrrolidin-1-ylmethyl-thiazol-4-yl)-phenoxy]-pentyloxy}-benzamidine], the inhibition at 1 µM in data set [1] (setting [5]) was 100%. In addition, the Cell survival rate in data set [2] was 103%; in data set [3], 97%; in data set [4], 90%.
In the same order, the values of `CNc1nc(-c2ccc(OCCCCCOc3ccc(C(=N)NO)cc3)cc2)c(N2CCOCC2)s1` [Example 23, N-hydroxy-4-{5-[4-(2-methylamino-5-morpholin-4-yl-thiazol-4-yl)-phenoxy]-pentyloxy}-benzamidine] are 58.9%, 92.0%, 95.8% and 104.0%.
With `CN(Cc1ccncc1)c1nc(-c2ccc(OCCCCCOc3ccc(C(=N)NO)cc3)cc2)c(CN2CCOCC2)s1` [Example 24, N-hydroxy-4-(5-{4-[2-(methyl-pyridin-4-ylmethyl-amino)-5-morpholin-4-ylmethyl-thiazol-4-yl]-phenoxy}-pentyloxy)-benzamidine], the inhibition at 1 µM in data set [1] amounted to 100%. Besides, the Cell survival rate in data set [2] is 86%; in data set [3], 95%; in data set [4] it was 112%.
Take `CN(CCO)c1nc(-c2ccc(OCCCCCOc3ccc(C(=N)NO)cc3)cc2)c(CN2CCOCC2)s1` [Example 25, N-hydroxy-4-[5-(4-{2-[(2-hydroxy-ethyl)-methyl-amino]-5-morpholin-4-ylmethyl-thiazol-4-yl}-phenoxy)-pentyloxy]-benzamidine]: in data set [1], the inhibition at 1 µM was found to be 100%. Moreover, the Cell survival rate in data set [2] was found to be 100%; in data set [3], 86%; in data set [4], 86%.
Turning to `CCN(C)c1nc(-c2ccc(OCCCCCOc3ccc(C(=N)NO)cc3)cc2)c(CN2CCOCC2)s1` [Example 26, N-hydroxy-4-(5-{4-[2-(ethyl-methyl-amino)-5-morpholin-4-ylmethyl-thiazol-4-yl]-phenoxy}-pentyloxy)-benzamidine], the inhibition at 1 µM in data set [1] (setting [5]) came out at 98%. In addition, the Cell survival rate is reported as 98% in data set [2], 107% in data set [3] and 102% in data set [4].
As for `CN(Cc1ccccc1)c1nc(-c2ccc(OCCCCCOc3ccc(C(=N)NO)cc3)cc2)c(CN2CCOCC2)s1` [Example 27, N-hydroxy-4-(5-{4-[2-(benzyl-methyl-amino)-5-morpholin-4-ylmethyl-thiazol-4-yl]-phenoxy}-pentyloxy)-benzamidine], the inhibition at 1 µM in data set [1] (setting [5]) was determined as 77%. The values for the Cell survival rate in data set [2], in data set [3] and in data set [4] were 102%, 106% and 104%, respectively.
Turning to `CN(CCN1CCOCC1)c1nc(-c2ccc(OCCCCCOc3ccc(C(=N)NO)cc3)cc2)c(CN2CCOCC2)s1` [Example 28, N-hydroxy-4-[5-(4-{2-[methyl-(2-morpholin-4-yl-ethyl)-amino]-5-morpholin-4-ylmethyl-thiazol-4-yl}-phenoxy)-pentyloxy]-benzamidine], the inhibition at 1 µM in data set [1] (setting [5]) is 100%. The Cell survival rate in data set [2] came to 11%; in data set [3], 104%; in data set [4], 114%.
Regarding `CN(CCN1CCOCC1)c1nc(-c2ccc(OCCCCCOc3ccc(C(=N)NO)cc3)cc2)c(CN2CCSCC2)s1` [Example 29, N-hydroxy-4-[5-(4-{2-[methyl-(2-morpholin-4-yl-ethyl)-amino]-5-thiomorpholin-4-ylmethyl-thiazol-4-yl}-phenoxy)-pentyloxy]-benzamidine], in data set [1], the inhibition at 1 µM stood at 97%. Besides, the Cell survival rate is 109% in data set [2], 99% in data set [3] and 109% in data set [4].
Consider `COCCN(CCOC)Cc1sc(N(C)CCN2CCOCC2)nc1-c1ccc(OCCCCCOc2ccc(C(=N)NO)cc2)cc1` [Example 30, N-hydroxy-4-[5-(4-{5-{[bis-(2-methoxy-ethyl)-amino]-methyl}-2-[methyl-(2-morpholin-4-yl-ethyl)-amino]-thiazol-4-yl}-phenoxy)-pentyloxy]-benzamidine], for which the inhibition at 1 µM in data set [1] was determined as 93%. The Cell survival rate in data set [2] stood at 105%; in data set [3] it was 103%; in data set [4], 107%.
`CN1CCN(Cc2sc(N(C)CCN3CCOCC3)nc2-c2ccc(OCCCCCOc3ccc(C(=N)NO)cc3)cc2)CC1` [Example 31, N-hydroxy-4-(5-{4-[2-[methyl-(2-morpholin-4-yl-ethyl)-amino]-5-(4-methyl-piperazin-1-ylmethyl)-thiazol-4-yl]-phenoxy}-pentyloxy)-benzamidine]: the inhibition at 1 µM in data set [1] (setting [5]) was determined as 88%. Besides, the Cell survival rate stood at 110% in data set [2], 102% in data set [3] and 101% in data set [4].
In the case of `CC(C)NCc1sc(N(C)CCN2CCOCC2)nc1-c1ccc(OCCCCCOc2ccc(C(=N)NO)cc2)cc1` [Example 32, N-hydroxy-4-[5-(4-{5-(isopropylamino-methyl)-2-[methyl-(2-morpholin-4-yl-ethyl)-amino]-thiazol-4-yl}-phenoxy)-pentyloxy]-benzamidine], in data set [1] (setting [5]), the inhibition at 1 µM was determined as 100%. Further, the Cell survival rate was 104% in data set [2], 98% in data set [3] and 106% in data set [4].
